From ChEMBL document CHEMBL5543137, “Design and Synthesis of Novel Ultralong-Acting Peptides as EDP-EBP Interaction Inhibitors for Pulmonary Fibrosis Treatment” (J Med Chem, 2024)
Activity calls are given as the source filed them. The rule behind the calls is not given here. Starred links: 1 amine or outer side, 2 acyl side, 3 side chain; linkers in the order of their positions; H or OH if unused. Non-standard residues stand in square brackets, D forms with d. Residues, ends and D or L forms follow the SMILES beside them. *: point of attachment. C20 diacid = O=C(O)CCCCCCCCCCCCCCCCCCC(=O)*; γGlu = O=C(O)[C@H](CCC(=O)[*:2])N[*:1]; Iva = CC[C@](C)(N)C(=O)O; PEG2 = NCCOCCOCCC(=O)O

What was measured:
[1] = test system: A549; assay: Antifibrotic activity against TNFalpha-induced human A549 cells assessed as downregulation of Tgfb1 gene expression level at 10 uM incubated for 24 hrs by RT-qPCR analysis; assay type: functional, cell-based
[2] = Half-life in Sprague-Dawley rat serum at 0.04 mg/kg, sc administered as single dose measured upto 10 days by LC-MS/MS method; assay type: ADME, organism-based; conditions: time < 10 day
[3] = Tmax in Sprague-Dawley rat serum at 0.12 mg/kg, sc administered as single dose measured upto 10 days by LC-MS/MS method; assay type: ADME, organism-based; conditions: time < 10 day
[4] = Half-life in Sprague-Dawley rat serum at 0.12 mg/kg, sc administered as single dose measured upto 10 days by LC-MS/MS method; assay type: ADME, organism-based; conditions: time < 10 day
[5] = test system: Mus musculus; assay: (§1) Antifibrotic activity against BLM-induced C57BL/6 mouse pulmonary fibrosis model assessed as reduction in lung inflammation at 150 ug/kg, sc administered for 2 weeks starting from 7 days post BLM induction and measured after 21 days post BLM induction by immunohistochemical staining based assay; assay type: functional, organism-based; conditions: dose 150.0 µg/kg
[6] = test system: Mus musculus; assay: as §1, with “fibrotic accumulation in lungs” for “lung inflammation”; assay type: functional, organism-based; conditions: dose 150.0 µg/kg
[7] = test system: Mus musculus; assay: Antifibrotic activity against BLM-induced C57BL/6 mouse pulmonary fibrosis model assessed as downregulation of Fn gene expression in lung tissue at 150 ug/kg, sc administered for 2 weeks starting from 7 days post BLM induction and measured after 21 days post BLM induction by RT-qPCR assay; assay type: functional, organism-based; conditions: dose 150.0 µg/kg
[8] = test system: Mus musculus; assay: Antifibrotic activity against BLM-induced sc dosed C57BL/6 mouse pulmonary fibrosis model assessed as minimum effective dose administered for 2 weeks starting from 7 days post BLM induction and measured after 21 days post BLM induction; assay type: functional; conditions: C57BL/6, 336 h, dose 30-240 µg/kg, read-out: MED
[9] = test system: Mus musculus; assay: Antifibrotic activity against BLM-induced C57BL/6 mouse pulmonary fibrosis model assessed as reduction in Ctgf gene expression at 240 ug/kg/day, sc administered for 2 weeks starting from 7 days post BLM induction and measured after 21 days post BLM induction by ScRNA-sequencing analysis; assay type: functional, organism-based; conditions: dose 240.0 µg/kg/day
[10] = test system: Mus musculus; assay: Antifibrotic activity against BLM-induced C57BL/6 mouse pulmonary fibrosis model assessed as reduction in Col1a1 gene expression at 240 ug/kg/day, sc administered for 2 weeks starting from 7 days post BLM induction and measured after 21 days post BLM induction by ScRNA-sequencing analysis; assay type: functional, organism-based; conditions: dose 240.0 µg/kg/day
[11] = test system: Mus musculus; assay: Antifibrotic activity against BLM-induced C57BL/6 mouse pulmonary fibrosis model assessed as reduction in Col1a2 gene expression at 240 ug/kg/day, sc administered for 2 weeks starting from 7 days post BLM induction and measured after 21 days post BLM induction by ScRNA-sequencing analysis; assay type: functional, organism-based; conditions: dose 240.0 µg/kg/day
[12] = test system: Mus musculus; assay: Antifibrotic activity against BLM-induced C57BL/6 mouse pulmonary fibrosis model assessed as reduction in lung Fn expression at 240 ug/kg/day, sc administered for 2 weeks starting from 7 days post BLM induction and measured after 21 days post BLM induction by Western blotting analysis; assay type: functional, organism-based; conditions: dose 240.0 µg/kg/day
[13] = test system: Mus musculus; assay: Antifibrotic activity against BLM-induced C57BL/6 mouse pulmonary fibrosis model assessed as reduction in lung vimentin expression at 240 ug/kg/day, sc administered for 2 weeks starting from 7 days post BLM induction and measured after 21 days post BLM induction by Western blotting analysis; assay type: functional, organism-based; conditions: dose 240.0 µg/kg/day
[14] = test system: Mus musculus; assay: Antifibrotic activity against BLM-induced C57BL/6 mouse pulmonary fibrosis model assessed as reduction in lung alpha-SMA expression at 240 ug/kg/day, sc administered for 2 weeks starting from 7 days post BLM induction and measured after 21 days post BLM induction by Western blotting analysis; assay type: functional, organism-based; conditions: dose 240.0 µg/kg/day
[15] = test system: Mus musculus; assay: Antifibrotic activity against BLM-induced C57BL/6 mouse pulmonary fibrosis model assessed as reduction in proportion of fibroblasts at 240 ug/kg/day, sc administered for 2 weeks starting from 7 days post BLM induction and measured after 21 days post BLM induction; assay type: functional, organism-based; conditions: dose 240.0 µg/kg/day
[16] = test system: Mus musculus; assay: Antifibrotic activity against BLM-induced C57BL/6 mouse pulmonary fibrosis model assessed as reduction in Cthrc1 gene expression at 240 ug/kg/day, sc administered for 2 weeks starting from 7 days post BLM induction and measured after 21 days post BLM induction by ScRNA-sequencing analysis; assay type: functional, organism-based; conditions: dose 240.0 µg/kg/day
[17] = test system: Mus musculus; assay: Antifibrotic activity against BLM-induced C57BL/6 mouse pulmonary fibrosis model assessed as reduction in Dcn gene expression at 240 ug/kg/day, sc administered for 2 weeks starting from 7 days post BLM induction and measured after 21 days post BLM induction by ScRNA-sequencing analysis; assay type: functional, organism-based; conditions: dose 240.0 µg/kg/day
[18] = test system: Mus musculus; assay: Antifibrotic activity against BLM-induced C57BL/6 mouse pulmonary fibrosis model assessed as reduction in Col5a1 gene expression at 240 ug/kg/day, sc administered for 2 weeks starting from 7 days post BLM induction and measured after 21 days post BLM induction by ScRNA-sequencing analysis; assay type: functional, organism-based; conditions: dose 240.0 µg/kg/day
[19] = test system: Mus musculus; assay: Antifibrotic activity against BLM-induced C57BL/6 mouse pulmonary fibrosis model assessed as reduction in Timp1 gene expression at 240 ug/kg/day, sc administered for 2 weeks starting from 7 days post BLM induction and measured after 21 days post BLM induction by ScRNA-sequencing analysis; assay type: functional, organism-based; conditions: dose 240.0 µg/kg/day
[20] = test system: RAW264.7; assay: Antifibrotic activity against BLM-induced mouse RAW264.7 cells assessed as upregulation of MMP-12 expression at 10 uM incubated for 6 to 24 hrs by ELISA; assay type: functional, cell-based; conditions: time 6-24 hrs
[21] = test system: RAW264.7; assay: Antifibrotic activity against BLM-induced mouse RAW264.7 cells assessed as upregulation of MMP-12 protein expression at 10 uM incubated for 6 to 24 hrs by Western blotting analysis; assay type: functional, cell-based; conditions: time 6-24 hrs
[22] = test system: RAW264.7; assay: Upregulation of MMP-12 expression in mouse RAW264.7 cells at 10 uM incubated for 6 to 24 hrs; assay type: functional, cell-based; conditions: time 6-24 hrs
[23] = test system: Mus musculus; assay: Antifibrotic activity against BLM-induced C57BL/6 mouse pulmonary fibrosis model assessed as increase in monocytes in BALF at 30 to 240 ug/kg/day, sc administered for 2 weeks starting from 7 days post BLM induction and measured after 21 days post BLM induction; assay type: functional, organism-based; conditions: dose 30-240 µg/kg/day
[24] = test system: Mus musculus; assay: Antifibrotic activity against BLM-induced C57BL/6 mouse pulmonary fibrosis model assessed as reduction in MMP-12 expression at 240 ug/kg/day, sc administered for 2 weeks starting from 7 days post BLM induction and measured after 21 days post BLM induction in presence of Clo-Lip; assay type: functional, organism-based; conditions: dose 240.0 µg/kg/day
[25] = test system: Mus musculus; assay: Antifibrotic activity against BLM-induced C57BL/6 mouse pulmonary fibrosis model assessed as reduction in FN expression at 240 ug/kg/day, sc administered for 2 weeks starting from 7 days post BLM induction and measured after 21 days post BLM induction in presence of GM6001; assay type: functional, organism-based; conditions: dose 240.0 µg/kg/day
[26] = test system: Mus musculus; assay: Antifibrotic activity against BLM-induced C57BL/6 mouse pulmonary fibrosis model assessed as reduction in Vimentin expression at 240 ug/kg/day, sc administered for 2 weeks starting from 7 days post BLM induction and measured after 21 days post BLM induction in presence of GM6001; assay type: functional, organism-based; conditions: dose 240.0 µg/kg/day
[27] = test system: Mus musculus; assay: Antifibrotic activity against BLM-induced C57BL/6 mouse pulmonary fibrosis model assessed as reduction in alpha-SMA expression at 240 ug/kg/day, sc administered for 2 weeks starting from 7 days post BLM induction and measured after 21 days post BLM induction in presence of GM6001; assay type: functional, organism-based; conditions: dose 240.0 µg/kg/day

CC[C@](C)(NC(=O)[C@@H](NC(=O)CCOCCOCCNC(=O)CCOCCOCCNC(=O)CC[C@H](NC(=O)CCCCCCCCCCCCCCCCCCC(=O)O)C(=O)O)C(C)C)C(=O)NCC(=O)N[C@@H](CO)C(=O)N1CCC[C@H]1C(=O)N[C@@H](CO)C(=O)N[C@@H](C)C(=O)N[C@@H](CCC(N)=O)C(=O)N[C@@H](CCC(=O)O)C(=O)N[C@@H](CCC(=O)O)C(=O)N[C@@H](C)C(=O)N[C@@H](CO)C(=O)N1CCC[C@H]1C(=O)N[C@@H](C)C(N)=O ({C20 diacid-γGlu-PEG2-PEG2}-V[Iva]GSPSAQEEASPA-NH2)
Activity [1]: Active
half-life [2]: 33.4 h
Tmax [3]: 24 h
half-life [4]: 33 h
Activity [5]: Active
Activity [6]: Active
Activity [7]: Active
minimal effective dose [8]: 0.03 mg/kg
Activity [9]: Active
Activity [10]: Active
Activity [11]: Active
Activity [12]: Active
Activity [13]: Active
Activity [14]: Active
Activity [15]: Active
Activity [16]: Active
Activity [17]: Active
Activity [18]: Active
Activity [19]: Active
Activity [20]: Active
Activity [21]: Active
Activity [22]: inactive
Activity [23]: Active
Activity [24]: inactive
Activity [25]: inactive
Activity [26]: inactive
Activity [27]: inactive
